Test results: patent US8140141B2, “Devices and methods for fluorescent inspection and/or removal of material in a sample” (University of Utah Research Foundation, priority 2006, dated 2012)

What was measured:
[1] = conventional blue dyes for sentinel lymph node procedures, after injection into tissue; cited from earlier work
[2] = tested on: P-388 murine leukemia cells
[3] = tested on: HCT-116 human colon tumor cells

Row | Compound | Passage out of lymphatic ducts into surrounding tissue [1] | Cellular uptake [2] | Cellular uptake [3]
1 | CCN(CC)c1ccc(C(=C2C=CC(=[N+](CC)CC)C=C2)c2cc(S(=O)(=O)[O-])ccc2S(=O)(=O)[O-])cc1.[Na+] [Lymphazurine] | tend to flow out of the lymphatic ducts into the surrounding tissue very quickly | – | –
2 | CN(C)c1ccc2nc3ccc(=[N+](C)C)cc-3sc2c1 [methylene blue] | tend to flow out of the lymphatic ducts into the surrounding tissue very quickly | – | –
3 | doxorubicin-cobalamin conjugate | – | can be observed | can be observed
